ChEMBL document CHEMBL2150920, “Discovery of a potent and selective small molecule hGPR91 antagonist” (Bioorg Med Chem Lett, 2011)
Calls of active or inactive are those of the source. The rule behind the calls is not given here.

Legend:
Succinate receptor 1 [1] = molecular target: T1, Succinate receptor 1 (Homo sapiens, UniProt Q9BXA5); assay: Antagonist activity at human GPR91 receptor expressed in CHO-K1 cells co-expressing Galpha and Gqi5 G-protein assessed as inhibition of succinate-induced increase in intracellular calcium level by FLIPR assay; type: functional, cell-based
T1 sequence (Q9BXA5 whole entry): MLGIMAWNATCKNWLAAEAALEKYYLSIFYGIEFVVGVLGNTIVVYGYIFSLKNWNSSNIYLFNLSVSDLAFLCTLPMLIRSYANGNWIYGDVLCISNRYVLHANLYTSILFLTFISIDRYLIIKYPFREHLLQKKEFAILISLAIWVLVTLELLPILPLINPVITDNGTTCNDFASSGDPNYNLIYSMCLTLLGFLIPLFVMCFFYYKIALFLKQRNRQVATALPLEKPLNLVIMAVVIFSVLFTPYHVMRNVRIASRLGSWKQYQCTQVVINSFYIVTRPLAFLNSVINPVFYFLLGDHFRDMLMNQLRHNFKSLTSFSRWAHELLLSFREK

Liver microsomes = assay: Intrinsic clearance in rat liver microsomes preincubated for 5 mins before addition of NADPH measured after 30 mins by LC/MS/MS analysis; type: ADME, Microsome; conditions: 0.5 h
[2] = molecular target: T2, Succinate receptor 1 (Homo sapiens) (UniProt Q9BXA5); assay: Antagonist activity at human GPR91 receptor expressed in CHO-K1 cells co-expressing Galpha and Gqi5 G-protein assessed as inhibition of succinate-induced increase in intracellular calcium level at 10 uM by FLIPR assay; type: functional, cell-based
T2 sequence (whole entry): T1 sequence (Q9BXA5 whole entry)

[3] = Plasma clearance in Wistar rat at 5 mg/kg, iv; type: ADME, organism-based; design: dose 5 mg/kg, route intravenous
[4] = Volume of distribution at steady state in Wistar rat at 5 mg/kg, iv; type: ADME, organism-based; design: dose 5 mg/kg, route intravenous; conditions: in vivo, read-out: Vdss
[5] = Terminal half life in Wistar rat at 5 mg/kg, iv; type: ADME, organism-based; design: dose 5 mg/kg, route intravenous; conditions: in vivo, read-out: beta t1/2 (converted)
Succinate receptor 1 [6] = molecular target: T3, Succinate receptor 1 (Rattus norvegicus, UniProt Q6IYF9); assay: Antagonist activity at rat GPR91 receptor expressed in CHO-K1 cells co-expressing Galpha and Gqi5 G-protein assessed as inhibition of succinate-induced increase in intracellular calcium level by FLIPR assay; type: functional, cell-based
T3 sequence (Q6IYF9 whole entry): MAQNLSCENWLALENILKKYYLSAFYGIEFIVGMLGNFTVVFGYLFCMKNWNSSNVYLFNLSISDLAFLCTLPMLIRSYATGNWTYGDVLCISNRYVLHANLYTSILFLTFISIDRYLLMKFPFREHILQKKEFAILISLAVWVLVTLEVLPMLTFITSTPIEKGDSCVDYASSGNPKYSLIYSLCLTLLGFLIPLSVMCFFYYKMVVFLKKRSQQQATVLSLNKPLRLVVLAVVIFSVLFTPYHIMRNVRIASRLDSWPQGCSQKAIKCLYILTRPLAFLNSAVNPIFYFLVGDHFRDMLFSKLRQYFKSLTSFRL

[7] = molecular target: 2-oxoglutarate receptor 1 (Homo sapiens, UniProt Q96P68); assay: Antagonist activity at human GPR99 receptor expressed in CHO-K1 cells co-expressing Galpha and Gqi5 G-protein assessed as inhibition of succinate-induced increase in intracellular calcium level at by FLIPR assay; type: functional, cell-based
[8] = Cmax in Wistar rat at 5 mg/kg, iv by LC/MS/MS analysis; type: ADME, organism-based; design: dose 5 mg/kg, route intravenous; conditions: in vivo

2-oxoglutarate receptor 1, sequence (Q96P68 whole entry, looked up): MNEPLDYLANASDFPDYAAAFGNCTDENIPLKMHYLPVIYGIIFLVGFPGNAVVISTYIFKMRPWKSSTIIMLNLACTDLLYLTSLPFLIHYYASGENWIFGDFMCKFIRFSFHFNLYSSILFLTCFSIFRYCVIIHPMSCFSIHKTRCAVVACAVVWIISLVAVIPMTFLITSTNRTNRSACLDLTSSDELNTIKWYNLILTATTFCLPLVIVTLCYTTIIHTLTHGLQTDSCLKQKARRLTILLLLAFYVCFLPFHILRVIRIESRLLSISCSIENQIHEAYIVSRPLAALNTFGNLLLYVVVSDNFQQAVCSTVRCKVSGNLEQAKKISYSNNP

Row | Structure (SMILES) | IC50 (Succinate receptor 1 [1]) [nM] | Intrinsic clearance (Liver microsomes) [nmol/min/mg] | further results
1 | O=C(CCCc1ccc2cccnc2n1)NCc1ccc(-c2ccc(F)c(Cl)c2)cc1 | 38 | 0.2 | 
2 | CC(C)(C(=O)NCc1ccc(-c2ccc(F)c(C(F)(F)F)c2)cc1)c1ccc(-c2ccc3cccnc3n2)cc1 | 17 | 0.28 | 
3 | O=C(Cc1ccc(-c2ccc3cccnc3n2)cc1)NCc1ccc(-c2ccc(F)c(Cl)c2)cc1 | 31 | 0.84 | 
4 | NC(=O)c1cccc(-c2ccc(CNC(=O)CCCc3ccc4cccnc4n3)cc2)c1 |  | 0.04 | inhibition [2]: inactive
5 | Clc1cccc(-c2ccc(-c3nnc(CCCc4ccc5cccnc5n4)o3)cc2)c1 | 40 | 0.3 | clearance [3]: 51 mL/min/kg; Vd [4]: 1.9 L/kg; half-life [5]: 54 min; IC50 (Succinate receptor 1 [6]): 67 nM; IC50 [7]: 5000 nM; Cmax [8]: 9.3 µM
6 | O=C(CCCc1ccc2cccnc2n1)NCc1ccc(-c2cccc(CO)c2)cc1 |  | 0.1 | inhibition [2]: inactive
7 | O=C(CCCc1ccc2cccnc2n1)NCc1ccc(-c2cccc(C(=O)O)c2)cc1 |  | 0.03 | inhibition [2]: inactive
8 | O=C(CCCc1ccc2cccnc2n1)NCc1ccc(-c2cccc(F)c2C(=O)O)cc1F |  | 0.08 | inhibition [2]: inactive
9 | Fc1ccc(-c2nnc(CCCCc3ccc4cccnc4n3)o2)cc1C(F)(F)F | 2000 | 0.16 | 
10 | Clc1ccc(-c2nnc(CCCCc3ccc4cccnc4n3)o2)cc1 | > 3000 |  | 
11 | Fc1ccc(-c2ccc(-c3nnc(CCCc4ccc5cccnc5n4)o3)cc2)cc1Cl | 100 | 0.2 | 
12 | FC(F)(F)c1cccc(-c2ccc(-c3nnc(CCCc4ccc5cccnc5n4)o3)cc2)c1 | 200 | 0.3 | 
13 | O=C(CCCc1ccc2cccnc2n1)NCc1cnc(-c2ccc(F)c(C(F)(F)F)c2)nc1 | 49 | 0.2 | 
14 | O=C(NCc1ccc(-c2ccc(F)c(C(F)(F)F)c2)cc1)C(O)(c1ccc(-c2ccc3cccnc3n2)cc1)C(F)(F)F (configuration not stated) | 34 | 0.2 | 
15 | O=C(CCCc1ccc2cccnc2n1)NCc1csc(-c2cccc(Cl)c2)n1 | 700 | 0.4 | 
16 | O=C(CCCc1ccc2cccnc2n1)NCc1nnc(-c2ccc(F)c(C(F)(F)F)c2)o1 | 1000 |  | 
17 | C[C@H](NC(=O)C(O)c1ccc(-c2ccc3cccnc3n2)cc1)c1ccc(-c2ccc(F)c(C(F)(F)F)c2)cc1 (some centres not stated) | 18 | 0.2 | 
18 | O=C(NCc1ccc(-c2ccccc2)cc1)c1ccc(-c2ccc3cccnc3n2)cc1 |  | 0.02 | inhibition [2]: inactive
19 | FC(F)(F)c1ccc(-c2nnc(CCCCc3ccc4cccnc4n3)o2)cc1 | 3000 | 0.07 | 
20 | O=C(CCCc1ccc2cccnc2n1)NCc1nc(-c2cccc(Cl)c2)cs1 | 300 | 0.18 | 
21 | FC(F)(F)Oc1ccc(-c2nnc(CCCCc3ccc4cccnc4n3)o2)cc1 | 3000 |  | 
22 | O=C(CCCc1ccc2cccnc2n1)NCc1ccc(-c2cccc(C(F)(F)F)c2)cc1F | 41 | 0.34 | 
23 | O=C(CCCc1ccc2cccnc2n1)NCc1ccc(-c2cccc(OC(F)(F)F)c2)cc1 | 500 | 0.2 | 
24 | Cc1cc(-c2ccc(CNC(=O)CCCc3ccc4cccnc4n3)cc2)ccc1Cl | 300 |  | 
25 | C[C@H](NC(=O)C(O)(c1ccc(-c2ccc3cccnc3n2)cc1)C(F)(F)F)c1ccc(-c2ccc(F)c(C(F)(F)F)c2)cc1 (some centres not stated) | 16 | 0.17 | 

Row | Structure (SMILES) | IC50 (Succinate receptor 1 [1]) [nM] | Intrinsic clearance (Liver microsomes) [nmol/min/mg] | further results
26 | CS(=O)(=O)c1cccc(-c2ccc(CNC(=O)CCCc3ccc4cccnc4n3)cc2)c1 |  | 0.1 | inhibition [2]: inactive
27 | FC(F)(F)c1ccc(-c2nnc(CCCCc3ccc4cccnc4n3)o2)cc1C(F)(F)F | 170 | 0.3 | 
28 | CCOC(=O)c1cccc(-c2ccc(CNC(=O)CCCc3ccc4cccnc4n3)cc2)c1 |  |  | inhibition [2]: inactive
29 | CC(NC(=O)CCCc1ccc2cccnc2n1)c1ccc(-c2cccc(C(F)(F)F)c2)cc1 (configuration not stated) | 16 | 0.25 | 
30 | O=C(CCCc1ccc2cccnc2n1)NCc1ccc(-c2ccccc2)cc1 | 1000 | 0.17 | 
31 | O=C(CCCc1ccc2cccnc2n1)NCc1cc(-c2cccc(Cl)c2)no1 | 65 | 0.09 | 
32 | CC(=O)Nc1cccc(-c2ccc(CNC(=O)CCCc3ccc4cccnc4n3)cc2)c1 |  |  | inhibition [2]: inactive
33 | CCc1cccc(-c2ccc(CNC(=O)CCCc3ccc4cccnc4n3)cc2)c1 | 65 | 0.4 | 
34 | C[C@H](NC(=O)C(C)(C)c1ccc(-c2ccc3cccnc3n2)cc1)c1ccc(-c2ccc(F)c(C(F)(F)F)c2)cc1 | 14 | 0.25 | 
35 | O=C(CCCc1ccc2cccnc2n1)NCc1nnc(-c2ccc(F)c(C(F)(F)F)c2)s1 | 270 |  | 
36 | O=C(CCCc1ccc2cccnc2n1)NCc1ccc(-c2ccc(F)c(C(F)(F)F)c2)nn1 | 720 |  | 
37 | COc1cccc(-c2ccc(CNC(=O)CCCc3ccc4cccnc4n3)cc2)c1 | 1000 | 0.6 | 
38 | O=C(O)Cc1cccc(-c2ccc(CNC(=O)CCCc3ccc4cccnc4n3)cc2)c1 |  |  | inhibition [2]: inactive
39 | C[C@H](NC(=O)C(F)(F)c1ccc(-c2ccc3cccnc3n2)cc1)c1ccc(-c2ccc(F)c(C(F)(F)F)c2)cc1 | 19 | 0.14 | 
40 | O=C(CCCc1ccc2cccnc2n1)NCc1cc(-c2ccc(F)c(Cl)c2)no1 | 90 | 0.11 | 
41 | O=C(CCCc1ccc2cccnc2n1)NCc1ccc(-c2ccc(F)c(C(F)(F)F)c2)cc1 | 22 | 0.1 | 
42 | O=C(Cc1ccc(-c2ccc3cccnc3n2)cc1)NCc1ccc(-c2ccc(F)c(C(F)(F)F)c2)cc1 | 75 | 0.28 | 
43 | Fc1ccc(-c2nnc(CCCCc3ccc4cccnc4n3)o2)cc1OC(F)(F)F | 4000 |  | 
44 | Clc1cccc(-c2ccc(-c3nnc(CCCc4ccc5cccnc5n4)s3)cc2)c1 | 3000 |  | 
45 | NC(C(=O)NCc1ccc(-c2ccc(F)c(C(F)(F)F)c2)cc1)c1ccc(-c2ccc3cccnc3n2)cc1 (configuration not stated) | 330 | 0.15 | 
46 | O=C(CCCc1ccc2cccnc2n1)NCc1cnn(-c2ccc(F)c(C(F)(F)F)c2)c1 | 210 | 0.18 | 
47 | O=C(CCCc1ccc2cccnc2n1)NCc1ncc(-c2ccc(F)c(C(F)(F)F)c2)cn1 | 200 |  | 
48 | Fc1ccc(-c2ccc(-c3nnc(CCCc4ccc5cccnc5n4)[nH]3)cc2)cc1Cl | 1000 | 0.14 | 
49 | N#Cc1cccc(-c2ccc(CNC(=O)CCCc3ccc4cccnc4n3)cc2)c1 |  | 0.1 | inhibition [2]: inactive
